The source of these data is US8193369B2, “Benzimidazole cannabinoid agonists” (Janssen Pharmaceutica NV, priority 2007, dated 2012).

The nature of series [1]: CB1 related side-effects: body temperature lowering, LAD. The format is in vivo. The method, then: CB1 related undesired side-effects such as lowering of body temperature, flat body posture, and mydriasis were measured for a number of compounds of the present invention and a number of compounds covered by reference WO-2006/048754.
The target of series [2] is T1, human CB2 (hCB2) receptor (Homo sapiens, UniProt P34972).
T1 construct: expressed in transfected cells; host or cells: CHO-K1
T1 sequence (P34972 whole entry): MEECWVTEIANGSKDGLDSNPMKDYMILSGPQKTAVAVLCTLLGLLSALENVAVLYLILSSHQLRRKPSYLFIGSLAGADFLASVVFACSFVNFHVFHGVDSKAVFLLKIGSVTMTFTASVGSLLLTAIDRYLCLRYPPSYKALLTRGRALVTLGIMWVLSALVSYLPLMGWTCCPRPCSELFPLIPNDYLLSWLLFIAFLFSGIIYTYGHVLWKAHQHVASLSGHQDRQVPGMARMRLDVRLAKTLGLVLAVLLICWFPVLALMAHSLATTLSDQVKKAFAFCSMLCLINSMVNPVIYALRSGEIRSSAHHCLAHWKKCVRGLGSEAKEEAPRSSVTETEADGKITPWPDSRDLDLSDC
In words: Inhibition of forskolin-activated cAMP production upon activation of human CB2 receptor (HTRF). The note with it: CHO-K1 cells stably transfected with hCB2; 15 μM forskolin; pEC50=-log(EC50); relative to WIN55212-2. The format is cell-based. As to the method: D. Pharmacological Examples D.1 Inhibition of cAMP in Response to Activation of the Human CB2 Receptors
Functional activity of the test compounds was assessed by measuring their potency to inhibit forskolin-activated cAMP production upon activation of human CB2 (hCB2) receptor through homogenous time resolved fluorescence (HTRF) assays.
CHO-K1 cells stably transfected with hCB2 were grown up to 80-90% confluence in T175 Falcon flasks in DMEM/NUT MIX F-12 culture medium complemented with 2% Solution A (5.10^6 IU/l penicillin G, 5 g/l streptomycin sulphate, 5.5 g/l pyruvate, 14.6 g/l L-glutamine, 1M NaOH) and 10% foetal calf serum. Before the experiments, medium was removed, cells were washed with PBS/EDTA (140 mM NaCl, 1 mM Na2-EDTA, 8 mM Na2HPO4.2H2O, 8.5 mM KH2PO4, 2.7 mM KCl, 21 mM glucose), resuspended in stimulation buffer (HBSS 1×, IBMX 1 mM, Hepes 5 mM, MgCl2 10 mM, BSA 0.1%, pH 7.4). Cells were diluted to a concentration of 10^6 cells/ml for hCB2 experiments. Assays were performed using the cAMP Dynamic HTRF kit (CIS bio international, France) according to the recommendations of the manufacturer.
For CB2, each well of a 384 flat bottom black polystyrene assay plate (Costar) was filled with 10 μl stimulation buffer containing 15 μM forskolin and either test compound (in 3% DMSO), 3% DMSO or 10 μM Win55212-2 (in 3% DMSO). Then, 20 μl of the diluted hCB2-CHO-K1 cells was added (20,000 cells/well). After 30 minutes incubation in dark at room temperature, 10 μl cAMP-XL665 and 10 μl anti-cAMP cryptate (both at a final dilution of 1/100) was added to the cells.
After equilibration of the reaction mixtures for 1 to 24 hours in dark at room temperature, fluorescence was measured at 665 nm and 620 nm using a Discovery microplate fluorescence counter (Perkin Elmer), and the signal ratio of 665 nm/620 nm was calculated. The signal ratios of the test compounds were expressed relative to the signal ratios of the DMSO control (maximal signal ratio, no inhibition of cAMP) and WIN55212-2 for hCB2, respectively (minimal signal ratio, maximal inhibition of cAMP). From the dose response curves generated for each test compound, the dose at which 50% of the maximal inhibition of cAMP level is observed (EC50, expressed in the Table as pEC50=−log (EC50) values) and the level of inhibition reached with 10 μM of the test compound compared to WIN55212-2 (for hCB2) was calculated.
Background: Changes in cAMP serve as a functional read-out for many G protein-coupled receptors.

As for `CCS(=O)(=O)c1ccc2c(c1)nc(C(C)(C)C)n2CC1CCN(C=O)CC1` [Co. No. 28], the “LAD (Lowest Acceptable Dose) at which lowering of body temperature was observed in more than half of the treated animals” value in series [1] is listed as more than 40 mg/kg.

For `CCS(=O)(=O)c1ccc2c(c1)nc(C(C)(C)C)n2CC1CCOCC1` [Co. No. F, reference compound], the “LAD (Lowest Acceptable Dose) at which lowering of body temperature was observed in more than half of the treated animals” value in series [1] was 10 mg/kg.

As to `CCS(=O)(=O)c1ccc2c(c1)nc(C(C)(C)C)n2CC1CCN(C(C)=O)CC1` [Co. No. 1], the “LAD (Lowest Acceptable Dose) at which lowering of body temperature was observed in more than half of the treated animals” value in series [1] is more than 40 mg/kg.

As to `CC(C)(C)c1nc2cc(S(=O)(=O)CCCC(F)(F)F)ccc2n1CC1CCOCC1` [Co. No. B, reference compound], in series [1], the “LAD (Lowest Acceptable Dose) at which lowering of body temperature was observed in more than half of the treated animals” value came out at 10 mg/kg.

Take `CCS(=O)(=O)c1ccc2c(c1)nc(C(C)(C)C)n2CC1CCS(=O)(=O)CC1` [Co. No. 29]: the “LAD (Lowest Acceptable Dose) at which lowering of body temperature was observed in more than half of the treated animals” value in series [1] is listed as more than 40 mg/kg.

For the molecule `CC(C)(C)c1nc2cc(S(=O)(=O)C3CCCC3)ccc2n1CC1CCOCC1` [Co. No. C, reference compound], the “LAD (Lowest Acceptable Dose) at which lowering of body temperature was observed in more than half of the treated animals” value in series [1] was 5 mg/kg.

For orientation: melting point means the temperature of the solid-liquid transition. For `CC(C)(C)c1nc2cc(S(=O)(=O)CC3CC3)ccc2n1CC1CCN(C=O)CC1` [compound 36], the melting point worked out at 186 °C. The “CB2 pEC50” value in series [2] is 8.66.

What is called EC50 is the concentration needed to bring the measured effect to its halfway point. A lower EC50 goes with greater potency. `CC(=O)N1CCC(Cn2c(C(C)(C)C)nc3cc(S(=O)(=O)c4cccc(C#N)c4)ccc32)CC1` [compound 84] returned a melting point of 191 °C. This molecule also gave an EC50 in series [2] of 3.31 nM.

`CC(C)(C)c1nc2cc(S(=O)(=O)c3ccncc3)ccc2n1CC1CCOCC1` [Co. No. D, reference compound]: the “LAD (Lowest Acceptable Dose) at which lowering of body temperature was observed in more than half of the treated animals” value in series [1] was 10 mg/kg.

Turning to `CC(=O)N1CCC(Cn2c(C(C)(C)C)nc3cc(S(=O)(=O)c4ccncc4)ccc32)CC1` [Co. No. 34], the “LAD (Lowest Acceptable Dose) at which lowering of body temperature was observed in more than half of the treated animals” value in series [1] is on record as more than 40 mg/kg.

As to `COCC(=O)N1CCC(Cn2c(C(C)(C)C)nc3cc(S(=O)(=O)CCCC(F)(F)F)ccc32)CC1` [compound 9], the melting point is more than 100 °C. Also, the “CB2 pEC50” value in series [2] came out at 5.80.

Regarding `CC(=O)N1CCC(Cn2c(C(C)(C)C)nc3cc(S(=O)(=O)c4cccc(Cl)c4)ccc32)CC1` [compound 90], the melting point turned out to be 192 °C. Moreover, the response in series [2] was half-maximal at 0.741 nM (EC50).

For the molecule `CCS(=O)(=O)c1ccc2c(c1)nc(CC(C)(C)C)n2CC1CCN(C(C)=O)CC1` [compound 46], the melting point was 152 to 155 °C. For the same molecule, the 50% effective concentration (EC50) in series [2] is 53.7 nM.

Molecule `CC(=O)N1CCC(Cn2c(C(C)(C)C)nc3cc(S(=O)(=O)c4ccccc4Cl)ccc32)CC1` [compound 71] gave a melting point of 218 °C. Moreover, the 50% effective concentration (EC50) in series [2] is 7.41 nM.

`COCCS(=O)(=O)c1ccc2c(c1)nc(C(C)(C)C)n2CC1CCN(C=O)CC1` [compound 27] showed a melting point of more than 100 °C. Also, the EC50 in series [2] is 61.7 nM.

Consider `CCC(=O)N1CCC(Cn2c(C(C)(C)C)nc3cc(S(=O)(=O)CCCC(F)(F)F)ccc32)CC1.Cl` [compound 6], for which the melting point was more than 100 °C. Besides, the “CB2 pEC50” value in series [2] is on record as 7.72.

`CC(=O)N1CCC(Cn2c(C(C)(C)C)nc3cc(S(=O)(=O)c4c(Cl)cccc4Cl)ccc32)CC1` [compound 60] had a melting point of 224 °C. The same molecule showed an EC50 in series [2] of 3.47 nM.

For the molecule `CCS(=O)(=O)c1ccc2c(c1)nc(CC(C)(C)C)n2CC1CCN(C=O)CC1` [compound 48], the melting point lay in the range of 166 to 168 °C. In series [2], the EC50 is 69.2 nM.

Turning to `COc1cccc(S(=O)(=O)c2ccc3c(c2)nc(C(C)(C)C)n3CC2CCN(C(C)=O)CC2)c1` [compound 82], the melting point is 164 °C. In series [2], the EC50 was 2.19 nM.

As for `CC(C)(C)c1nc2cc(S(=O)(=O)c3nccs3)ccc2n1CC1CCN(C=O)CC1` [compound 49], the melting point was 190 °C. In series [2], this molecule had a half-maximal effective concentration (EC50) of 7.41 nM.

`CCCC(CCC)S(=O)(=O)c1ccc2c(c1)nc(C(C)(C)C)n2CC1CCN(C(C)=O)CC1` [compound 67] displayed a melting point of 132 °C. The molecule also gave an EC50 in series [2] of 2.75 nM.

As for `CC(=O)N1CCC(Cn2c(C(C)(C)C)nc3cc(S(=O)(=O)c4cccs4)ccc32)CC1` [compound 68], the melting point came to 187 °C. The molecule further showed a concentration for a half-maximal effect (EC50) in series [2] of 2.95 nM.

Regarding `CC(C)(C)c1nc2cc(S(=O)(=O)CCCO)ccc2n1CC1CCN(C=O)CC1` [compound 26], the melting point is more than 100 °C. In addition, the response in series [2] was half-maximal at 8.91 nM (EC50).

As for `COC(=O)N1CCC(Cn2c(C(C)(C)C)nc3cc(S(=O)(=O)CCCC(F)(F)F)ccc32)CC1.Cl` [compound 7], the melting point is more than 100 °C. The “CB2 pEC50” value in series [2] is given as 7.77.

`CC(=O)N1CCC(Cn2c(C(C)(C)C)nc3cc(S(=O)(=O)CC4CC4)ccc32)CC1` [compound 24] returned a melting point of 150 °C. Also, a half-maximal response in series [2] (EC50) required 9.33 nM.

On to `CCS(=O)(=O)c1ccc2c(c1)nc(C(C)(C)C)n2CC1CCS(=O)(=O)CC1` [compound 29], for which the melting point came to 194 °C. In series [2], this molecule gave a 50% effective concentration (EC50) of 27.5 nM.

As for `CC(=O)N1CCC(Cn2c(C(C)(C)C)nc3cc(S(=O)(=O)CCCC(F)(F)F)ccc32)CC1` [Co. No. 3], the “LAD (Lowest Acceptable Dose) at which lowering of body temperature was observed in more than half of the treated animals” value in series [1] is on record as more than 40 mg/kg.

As for `CC(=O)N1CCC(Cn2c(C(C)(C)C)nc3cc(S(=O)(=O)C4CCCC4)ccc32)CC1` [Co. No. 35], the “LAD (Lowest Acceptable Dose) at which lowering of body temperature was observed in more than half of the treated animals” value in series [1] is reported as more than 40 mg/kg.

The molecule `CC(=O)N1CCC(Cn2c(C(C)(C)C)nc3cc(S(=O)(=O)c4ccc(F)cc4)ccc32)CC1` [compound 59] yielded a melting point of 186 °C. Also, the EC50 in series [2] is 2.75 nM.

For the molecule `CC(C)(C)c1nc2cc(S(=O)(=O)CC3CC3)ccc2n1CC1CCS(=O)(=O)CC1` [compound 31], the melting point stood at 234 °C. In series [2], this molecule had an EC50 of 8.51 nM.

On to `CC(C)(C)c1nc2cc(S(=O)(=O)CCCC(F)(F)F)ccc2n1CC1CCN(C=O)CC1` [compound 5], for which the melting point is more than 100 °C. The “CB2 pEC50” value in series [2] is 8.62.

`CC(=O)N1CCC(Cn2c(C(C)(C)C)nc3cc(S(=O)(=O)c4ccncc4)ccc32)CC1` [compound 34] yielded a melting point of 179 °C. In series [2], the EC50 was 3.89 nM.

On to `CCS(=O)(=O)c1ccc2c(c1)nc(CC(C)(C)C)n2CC1CCN(C(C)=O)CC1` [Co. No. 46], for which the “LAD (Lowest Acceptable Dose) at which lowering of body temperature was observed in more than half of the treated animals” value in series [1] is more than 40 mg/kg.

As for `CC(C)(C)c1nc2cc(S(=O)(=O)CCCC(F)(F)F)ccc2n1CC1CCN(C(=O)C(F)(F)F)CC1.Cl` [compound 8], the melting point is more than 100 °C. Also, the “CB2 pEC50” value in series [2] stood at 7.64.

In turn, `CC(=O)N1CCC(Cn2c(C(C)(C)C)nc3cc(S(=O)(=O)c4nccs4)ccc32)CC1` [compound 40] yielded a melting point of 191 °C. In series [2], this molecule gave an EC50 of 5.89 nM.
